From patent publication US10464918B2, “Process of making somatostatin modulators” (Crinetics Pharmaceuticals, Inc., priority 2018, dated 2019)
≈ marks a conversion by molar mass, not a printed value. Structures can show the parent of a compound that is named as a salt. Where two headings read alike, the source gives them in different places. Each block holds one compound with its values, some of them ahead of it.

Experiments:
human SSTR2 = human SSTR2 (Homo sapiens (Human), UniProt P30874); experiment: Functional cAMP assay for SSTR2 agonists; assay type: cell-based; settings: inhibition of cAMP activities via human SST2R; CHO-K1 cells stably expressing human SSTR2
Description: General overview: All five SSTR subtypes are Gi coupled G-protein coupled receptors (GPCRs) that lead to decreases in intracellular cyclic AMP (cAMP) when activated by an agonist. […] Human SSTR2 intracellular cAMP assay is described below. The human SSTR1, 3, 4 and 5 assays follow the same protocol of SSTR2.
The cells are cultured at 37° C., 5% CO2 and 95% humidity. […] The cells are incubated for 20 minutes at 37° C. […] The cells are treated with 50 μL of lysis buffer (HRTF cAMP kit, Cisbio). The lysate is transferred to 384-well plates and cAMP detection and visualization antibodies are added and incubated for 1-24 hours at room temperature. The time-resolved fluorescent signal is read with a Tecan M1000Pro multiplate reader. The intracellular cAMP concentrations are calculated by regression to a standard curve and are plotted vs. the concentration of the compounds of the invention and the EC50 of the compounds are calculated using standard methods. All data manipulations are in GraphPad Prism v6.

[1] = Solubility in water, FaSSGF and FaSSIF (slurry, HPLC); assay type: physicochemical; settings: slurried at 37° C. for 2 days; for solubility at 2 days: 37 °C, thermodynamic from solid
Description: The salt forms were slurried in water, Fasted State Simulated Gastric Fluid (FaSSGF), and Fasted State Simulated Intestinal Fluid (FaSSIF) at 37° C. for 2 days. Part of the slurry was filtered using a […] syringe filter to recover the supernatant for solubility measurement and the rest was filtered to recover the remaining solid for XRPD analysis.
A calibration curve was developed for measuring concentration via HPLC. Compound A was added to a 100 mL volumetric flask and then filled to the volume with HPLC grade ethanol. […] A 30 minute gradient method with Solvent A as water with 0.1% TFA and solvent B as Methanol:Acetonitrile (1:1) was used.
The calibration correlation was used to measure the solubility of the salt forms. From the clear saturated solution, 0.1 mL liquid was transferred into a 10 mL vial and then filled to the volume with methanol. The solution was then directly injected into the HPLC.

[2] = Dynamic Vapor Sorption (DVS); assay type: physicochemical; settings: for XRPD after DVS analysis: DVS between 2 and 95% RH
Description: Dynamic Vapor Sorption (DVS) was done using a DVS Intrinsic 1. The sample is loaded into a sample pan and suspended from a microbalance. A typical sample mass for DVS measurement is 25 mg. Nitrogen gas bubbled through distilled water provides the desired relative humidity.
A typical measurement includes the steps: • 1—Equilibrate at 50% RH • 2—50% to 2%. (50%, 40%, 30%, 20%, 10% and 2%) • a. Hold minimum of 5 mins and maximum of 60 minutes at each humidity. The pass criteria is less than 0.002% change • 3—2% to 95% (2%, 10%, 20%, 30%, 40%, 50%, 60%, 70%, 80%, 90%, 95%) • a. Hold minimum of 5 mins and maximum of 60 minutes at each humidity. The pass criteria is less than 0.002% change • 4—95% to 2% (95%, 80%, 70%, 60%, 50%, 40%, 30%, 20%, 10%, 2%) • a. Hold minimum of 5 mins and maximum of 60 minutes at each humidity. The pass criteria is less than 0.002% change • 5—2% to 50% (2%, 10%, 20%, 30%, 40%, 50%) • a. Hold minimum of 5 mins and maximum of 60 minutes at each humidity. The pass criteria is less than 0.002% change

[3] = Thermal study (TGA/DSC heating followed by XRPD); assay type: physicochemical; settings: heated by TGA/DSC, cooled to RT
Description: Differential Scanning calorimetry (DSC) was done using a Mettler Toledo DSC3+. Aluminum crucible with cramped pinned lid were used. The heating rates are usually 10° C. per minute from 30 to 250° C. Thermogravimetric Analysis (TGA) was done using a Mettler Toledo TGA/DSC3+. Aluminum crucible with cramped pinned lid were used. The heating rates are usually 10° C. per minute from 30 to 250° C. […] These peaks were evaluated using thermal analysis and XRPD techniques. Compound A-HCl was heated to various temperatures using TGA/DSC followed by cooling to room temperature and analysis using XRPD. […] The following thermal treatments were performed: Sample 1: heated the salt to 100° C. and cooled to RT followed by XRPD; Sample 2: heated the salt to 150° C. and cooled to RT followed by XRPD; Sample 3: heated the salt to 200° C. and cooled to RT followed by XRPD; Sample 4: heated the salt to 250° C. and cooled to RT followed by XRPD; and Sample 5: heated the salt to 295° C. and cooled to RT followed by XRPD.

[4] = Fasted State Simulated Gastric Fluid (FaSSGF), fassgf or other biorelevant, Fasted State Simulated Gastric Fluid, read-out: Solubility in FaSSGF
[5] = Fasted State Simulated Intestinal Fluid (FaSSIF), fassif, Fasted State Simulated Intestinal Fluid, read-out: Solubility in FaSSIF

human SSTR2, sequence (P30874 whole entry): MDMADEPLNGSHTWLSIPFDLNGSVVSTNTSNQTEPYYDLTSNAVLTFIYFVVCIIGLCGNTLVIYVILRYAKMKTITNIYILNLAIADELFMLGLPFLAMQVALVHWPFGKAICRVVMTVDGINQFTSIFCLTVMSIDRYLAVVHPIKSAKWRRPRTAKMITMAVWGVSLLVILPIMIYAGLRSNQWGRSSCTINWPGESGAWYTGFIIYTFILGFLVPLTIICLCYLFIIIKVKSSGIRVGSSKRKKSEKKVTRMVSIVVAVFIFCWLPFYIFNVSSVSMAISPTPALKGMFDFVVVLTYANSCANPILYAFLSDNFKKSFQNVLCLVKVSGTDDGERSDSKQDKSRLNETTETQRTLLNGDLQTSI

SMILES: Cc1cc(F)cc(-c2cnc3ccc(-c4nccc(C#N)c4N)cc3c2N2CC[C@@H]3NCCO[C@H]3C2)c1 [Compound 1-4, 2-{4-[(4aS,8aS)-octahydro-1H-pyrido[3,4-b][1,4]oxazin-6-yl]-3-(3-fluoro-5-methylphenyl)quinolin-6-yl}-3-aminopyridine-4-carbonitrile]
EC50 (human SSTR2): < 10 nM

SMILES: N#Cc1ccnc(-c2ccc3ncc(-c4cccc(F)c4)c(N4CC[C@@H]5NCCO[C@H]5C4)c3c2)c1N [Compound 1-7, 2-{4-[(4aS,8aS)-octahydro-1H-pyrido[3,4-b][1,4]oxazin-6-yl]-3-(3-fluorophenyl)quinolin-6-yl}-3-aminopyridine-4-carbonitrile]
EC50 (human SSTR2): < 10 nM

SMILES: Cc1cc(F)cc(-c2cnc3ccc(-c4cccc(C#N)c4O)c(F)c3c2N2CCC(N)CC2)c1 [Compound 1-9, 3-[4-(4-aminopiperidin-1-yl)-5-fluoro-3-(3-fluoro-5-methylphenyl)quinolin-6-yl]-2-hydroxybenzonitrile]
EC50 (human SSTR2): < 10 nM

SMILES: Cc1cc(F)cc(-c2cnc3cc(F)c(-c4cccc(C#N)c4O)cc3c2N2CCC(N)CC2)c1 [Compound 1-10, 3-[4-(4-aminopiperidin-1-yl)-7-fluoro-3-(3-fluoro-5-methylphenyl)quinolin-6-yl]-2-hydroxybenzonitrile]
EC50 (human SSTR2): < 10 nM

SMILES: N#Cc1cccc(-c2ccc3ncc(-c4cc(F)cc(F)c4)c(N4CCC(N)CC4)c3c2)c1O [Compound A, 3-(4-(4-amino-piperidin-1-yl)-3-(3,5-difluoro-phenyl)-quinolin-6-yl)-2-hydroxy-benzonitrile]
EC50 (human SSTR2): < 10 nM | solubility at 2 days [1, 4]: 2430 µg/mL (≈ 5320 µM) | solubility at 2 days [1, 5]: 13 µg/mL (≈ 28.5 µM) | Solubility in Water ([1]; water, listed as Compound A (free base)): 5 µg/mL (≈ 11 µM)

SMILES: N#Cc1cccc(-c2ccc3ncc(-c4cc(F)cc(F)c4)c(N4CCC(N)CC4)c3c2)c1O [Compound A-2HCl, 3-[4-(4-amino-piperidin-1-yl)-3-(3,5-difluoro-phenyl)-quinolin-6-yl]-2-hydroxy-benzonitrile dihydrochloride]
Solubility in FaSSGF ([1]; Fasted State Simulated Gastric Fluid, dihydrochloride): 3690 µg/mL | Solubility in FaSSIF ([1]; Fasted State Simulated Intestinal Fluid, dihydrochloride): 11 µg/mL | Solubility in Water ([1]; water, dihydrochloride): 5630 µg/mL | XRPD after DVS analysis [2]: unchanged | reversible water uptake ([2]; between 2 and 95% RH): ~18 % w/w | reversible water uptake ([2]; between 15 and 75% RH): ~9 % w/w

SMILES: Cl.N#Cc1cccc(-c2ccc3ncc(-c4cc(F)cc(F)c4)c(N4CCC(N)CC4)c3c2)c1O [Compound A-HCl, 3-[4-(4-amino-piperidin-1-yl)-3-(3,5-difluoro-phenyl)-quinolin-6-yl]-2-hydroxy-benzonitrile monohydrochloride]
solubility at 2 days [1, 4]: 2120 µg/mL | solubility at 2 days [1, 5]: 10 µg/mL | solubility at 2 days ([1]; water, water, water, read-out: Solubility in Water): 830 µg/mL | temperature up to which the solid is intact [3]: up to 200 °C | XRPD after DVS analysis [2]: unchanged | reversible water uptake ([2]; between 2 and 95% RH): ~4.5 % w/w | reversible water uptake ([2]; between 15 and 75% RH): ~2.3 % w/w

Now from value to compound:

EC50 (human SSTR2): < 10 nM
SMILES: O/N=C/c1cccc(-c2ccc3ncc(-c4cc(F)cc(F)c4)c(N4CC[C@@H]5NCCO[C@H]5C4)c3c2)c1O [Compound 1-1, 2-{4-[(4aS,8aS)-octahydro-1H-pyrido[3,4-b][1,4]oxazin-6-yl]-3-(3,5-difluorophenyl)quinolin-6-yl}-6-[(1E)-(hydroxyimino)methyl]phenol]

EC50 (human SSTR2): < 10 nM
SMILES: CO/N=C/c1ccnc(-c2ccc3ncc(-c4cc(C)cc(F)c4)c(N4CC[C@@H]5NCCO[C@H]5C4)c3c2)c1N [Compound 1-2, 2-{4-[(4aS,8aS)-octahydro-1H-pyrido[3,4-b][1,4]oxazin-6-yl]-3-(3-fluoro-5-methylphenyl)quinolin-6-yl}-4-[(1E)-(methoxyimino)methyl]pyridin-3-amine]

EC50 (human SSTR2): < 10 nM
SMILES: CO/N=C/c1ccnc(-c2ccc3ncc(-c4cc(F)cc(Cl)c4)c(N4CC[C@@H]5NCCO[C@H]5C4)c3c2)c1N [Compound 1-3, 2-{4-[(4aS,8aS)-octahydro-1H-pyrido[3,4-b][1,4]oxazin-6-yl]-3-(3-chloro-5-fluorophenyl)quinolin-6-yl}-4-[(1E)-(methoxyimino)methyl]pyridin-3-amine]

EC50 (human SSTR2): < 10 nM
SMILES: N#Cc1ccnc(-c2ccc3ncc(-c4cc(F)cc(Cl)c4)c(N4CC[C@@H]5NCCO[C@H]5C4)c3c2)c1N [Compound 1-5, 2-{4-[(4aS,8aS)-octahydro-1H-pyrido[3,4-b][1,4]oxazin-6-yl]-3-(3-chloro-5-fluorophenyl)quinolin-6-yl}-3-aminopyridine-4-carbonitrile]

EC50 (human SSTR2): < 10 nM
SMILES: Nc1c(/C=N/O)ccnc1-c1ccc2ncc(-c3cc(F)cc(F)c3)c(N3CC[C@@H]4NCCO[C@H]4C3)c2c1 [Compound 1-6, 2-{4-[(4aS,8aS)-octahydro-1H-pyrido[3,4-b][1,4]oxazin-6-yl]-3-(3,5-difluorophenyl)quinolin-6-yl}-4-[(1E)-(hydroxyimino)methyl]pyridin-3-amine]

EC50 (human SSTR2): < 10 nM
SMILES: Cc1ccnc(-c2ccc3ncc(-c4cccc(F)c4)c(N4CC[C@@H]5NCCO[C@H]5C4)c3c2)c1N [Compound 1-8, 2-{4-[(4aS,8aS)-octahydro-1H-pyrido[3,4-b][1,4]oxazin-6-yl]-3-(3-fluorophenyl)quinolin-6-yl}-4-methylpyridin-3-amine]
